# Assay results published in ChEMBL document CHEMBL5465560, “Selectivity Literature for EUbOPEN Chemogenomic Library” (2024).
# Legend:
# [1] = molecular target: T1, Dual specificity mitogen-activated protein kinase kinase 4 (Homo sapiens) (UniProt P45985); assay: Selectivity interaction (Kinase panel (DSF assay)) EUB0001559a MAP2K4
# T1 sequence (whole entry): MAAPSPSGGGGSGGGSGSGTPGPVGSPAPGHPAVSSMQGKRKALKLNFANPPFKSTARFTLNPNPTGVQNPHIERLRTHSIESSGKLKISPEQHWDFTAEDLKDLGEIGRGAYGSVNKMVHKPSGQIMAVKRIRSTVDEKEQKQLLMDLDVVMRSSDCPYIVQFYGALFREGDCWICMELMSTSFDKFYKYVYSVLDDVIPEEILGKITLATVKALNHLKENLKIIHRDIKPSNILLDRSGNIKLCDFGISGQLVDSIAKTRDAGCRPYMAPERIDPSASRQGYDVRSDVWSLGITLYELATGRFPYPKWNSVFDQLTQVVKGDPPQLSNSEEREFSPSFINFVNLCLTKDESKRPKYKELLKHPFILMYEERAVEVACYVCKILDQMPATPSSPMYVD
# [2] = molecular target: Serine/threonine-protein kinase WNK1 (Homo sapiens) (UniProt Q9H4A3); assay: Selectivity interaction (KinomeScan (DiscoverX)) EUB0000607a WNK1; conditions: at 10 µM
# [3] = system: RAF proto-oncogene serine/threonine-protein kinase (Homo sapiens), P04049 [Y340D,Y341D]; assay: Selectivity interaction (SelectScreen profiling (Invitrogen)) EUB0000607a RAF1; conditions: at 2 µM
# [4] = molecular target: 5'-AMP-activated protein kinase catalytic subunit alpha-2 (Homo sapiens) (UniProt P54646); assay: Selectivity interaction (KinomeScan (DiscoverX)) EUB0000045b PRKAA2
# [5] = molecular target: T2, Serine/threonine-protein kinase TAO1 (Homo sapiens) (UniProt Q7L7X3); assay: Selectivity interaction (KinomeScan (DiscoverX)) EUB0000045b TAOK1
# T2 sequence (whole entry): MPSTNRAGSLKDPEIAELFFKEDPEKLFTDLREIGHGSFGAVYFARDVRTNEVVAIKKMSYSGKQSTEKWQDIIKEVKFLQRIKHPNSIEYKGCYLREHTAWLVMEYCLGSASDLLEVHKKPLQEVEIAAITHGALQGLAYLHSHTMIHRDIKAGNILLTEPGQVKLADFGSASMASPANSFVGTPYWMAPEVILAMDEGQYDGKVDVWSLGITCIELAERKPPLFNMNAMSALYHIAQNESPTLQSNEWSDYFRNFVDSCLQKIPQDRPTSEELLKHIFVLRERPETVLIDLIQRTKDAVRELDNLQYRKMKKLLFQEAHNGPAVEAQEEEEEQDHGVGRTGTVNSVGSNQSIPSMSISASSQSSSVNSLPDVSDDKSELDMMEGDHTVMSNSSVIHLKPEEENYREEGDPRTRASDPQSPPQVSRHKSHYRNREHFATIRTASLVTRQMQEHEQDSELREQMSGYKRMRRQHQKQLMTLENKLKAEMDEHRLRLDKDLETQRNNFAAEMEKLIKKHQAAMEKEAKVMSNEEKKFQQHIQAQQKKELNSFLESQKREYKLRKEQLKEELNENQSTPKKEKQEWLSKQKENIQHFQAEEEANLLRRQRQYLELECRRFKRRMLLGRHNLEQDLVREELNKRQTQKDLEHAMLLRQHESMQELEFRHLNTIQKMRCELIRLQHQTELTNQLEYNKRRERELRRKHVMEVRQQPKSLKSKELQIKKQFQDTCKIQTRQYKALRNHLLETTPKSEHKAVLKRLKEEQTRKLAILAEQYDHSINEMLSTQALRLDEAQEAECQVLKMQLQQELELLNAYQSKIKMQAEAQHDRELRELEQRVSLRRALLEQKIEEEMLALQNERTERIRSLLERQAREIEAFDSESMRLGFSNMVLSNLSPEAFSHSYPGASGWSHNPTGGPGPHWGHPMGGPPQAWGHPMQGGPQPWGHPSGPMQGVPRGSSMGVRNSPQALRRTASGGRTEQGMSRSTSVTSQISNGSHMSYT
# [6] = molecular target: SRSF protein kinase 3 (Homo sapiens) (UniProt Q9UPE1); assay: Selectivity interaction (KinomeScan (DiscoverX)) EUB0000595a SRPK3; conditions: at 10 µM
# [7] = molecular target: T3, Ephrin type-A receptor 1 (Homo sapiens) (UniProt P21709); assay: Selectivity interaction (KinomeScan (DiscoverX)) EUB0000229b EPHA1; conditions: at 10 µM
# T3 sequence (whole entry): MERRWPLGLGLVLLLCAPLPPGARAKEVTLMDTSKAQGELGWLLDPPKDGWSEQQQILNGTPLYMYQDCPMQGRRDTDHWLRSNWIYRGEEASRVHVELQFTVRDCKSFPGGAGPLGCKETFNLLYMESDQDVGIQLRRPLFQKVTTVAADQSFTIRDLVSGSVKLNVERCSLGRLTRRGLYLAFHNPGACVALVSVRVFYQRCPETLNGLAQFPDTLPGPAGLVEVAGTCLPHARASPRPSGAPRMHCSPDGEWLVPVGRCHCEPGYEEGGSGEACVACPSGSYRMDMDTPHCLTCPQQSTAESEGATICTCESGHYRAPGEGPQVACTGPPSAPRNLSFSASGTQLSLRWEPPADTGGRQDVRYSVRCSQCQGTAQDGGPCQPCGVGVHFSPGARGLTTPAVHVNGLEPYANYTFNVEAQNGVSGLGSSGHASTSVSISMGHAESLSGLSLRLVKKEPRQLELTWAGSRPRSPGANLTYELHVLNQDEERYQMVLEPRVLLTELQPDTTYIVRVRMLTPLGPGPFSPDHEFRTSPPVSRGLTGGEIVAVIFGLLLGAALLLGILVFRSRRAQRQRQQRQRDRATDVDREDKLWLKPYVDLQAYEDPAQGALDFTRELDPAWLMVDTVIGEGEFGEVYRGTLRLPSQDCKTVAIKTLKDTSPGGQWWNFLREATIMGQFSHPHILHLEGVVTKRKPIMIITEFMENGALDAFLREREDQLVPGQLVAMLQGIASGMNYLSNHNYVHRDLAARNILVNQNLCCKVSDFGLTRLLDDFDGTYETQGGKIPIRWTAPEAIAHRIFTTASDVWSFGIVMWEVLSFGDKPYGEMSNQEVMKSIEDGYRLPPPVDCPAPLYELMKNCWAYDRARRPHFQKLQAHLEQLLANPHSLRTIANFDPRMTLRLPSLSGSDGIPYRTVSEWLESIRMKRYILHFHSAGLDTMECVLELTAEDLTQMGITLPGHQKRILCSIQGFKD
# [8] = molecular target: MAP/microtubule affinity-regulating kinase 3 (Homo sapiens) (UniProt P27448); assay: Selectivity interaction (KinomeScan (DiscoverX)) EUB0001049a MARK3; conditions: at 1 µM
# [9] = molecular target: SRSF protein kinase 3 (Homo sapiens) (UniProt Q9UPE1); assay: Selectivity interaction (KinomeScan (DiscoverX)) EUB0001049a SRPK3; conditions: at 1 µM
# Chain of 5'-AMP-activated protein kinase catalytic subunit alpha-2 (Homo sapiens) (P54646 whole entry, looked up): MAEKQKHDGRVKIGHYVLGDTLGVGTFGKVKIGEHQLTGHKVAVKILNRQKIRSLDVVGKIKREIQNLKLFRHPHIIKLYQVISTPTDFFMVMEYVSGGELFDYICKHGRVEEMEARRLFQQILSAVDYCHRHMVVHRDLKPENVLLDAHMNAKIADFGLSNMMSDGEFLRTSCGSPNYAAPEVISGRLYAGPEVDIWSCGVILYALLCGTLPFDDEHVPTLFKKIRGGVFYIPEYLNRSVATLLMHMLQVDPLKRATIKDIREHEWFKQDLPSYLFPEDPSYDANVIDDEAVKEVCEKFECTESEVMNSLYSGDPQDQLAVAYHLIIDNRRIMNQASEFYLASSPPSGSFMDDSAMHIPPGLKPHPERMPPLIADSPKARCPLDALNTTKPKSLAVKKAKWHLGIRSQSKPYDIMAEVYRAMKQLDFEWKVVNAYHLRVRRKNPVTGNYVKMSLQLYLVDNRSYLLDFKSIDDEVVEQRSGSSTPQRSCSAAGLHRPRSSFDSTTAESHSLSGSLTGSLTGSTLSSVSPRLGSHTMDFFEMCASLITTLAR
# Chain of SRSF protein kinase 3 (Homo sapiens) (Q9UPE1 whole entry): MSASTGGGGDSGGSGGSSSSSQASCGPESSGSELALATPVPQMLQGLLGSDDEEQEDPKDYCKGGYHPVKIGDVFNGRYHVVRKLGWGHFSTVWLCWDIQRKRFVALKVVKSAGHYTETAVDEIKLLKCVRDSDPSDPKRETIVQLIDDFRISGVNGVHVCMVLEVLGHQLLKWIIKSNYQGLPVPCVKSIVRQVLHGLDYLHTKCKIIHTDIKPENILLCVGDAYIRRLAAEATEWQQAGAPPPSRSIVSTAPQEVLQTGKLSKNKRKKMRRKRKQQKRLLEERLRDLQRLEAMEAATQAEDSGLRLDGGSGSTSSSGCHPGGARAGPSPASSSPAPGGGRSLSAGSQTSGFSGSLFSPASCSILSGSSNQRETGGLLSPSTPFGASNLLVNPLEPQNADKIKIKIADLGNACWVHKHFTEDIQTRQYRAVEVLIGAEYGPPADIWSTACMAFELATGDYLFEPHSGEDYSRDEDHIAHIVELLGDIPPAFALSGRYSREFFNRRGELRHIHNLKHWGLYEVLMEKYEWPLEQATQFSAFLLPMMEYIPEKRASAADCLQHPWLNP
# Chain of MAP/microtubule affinity-regulating kinase 3 (Homo sapiens) (P27448 whole entry, looked up): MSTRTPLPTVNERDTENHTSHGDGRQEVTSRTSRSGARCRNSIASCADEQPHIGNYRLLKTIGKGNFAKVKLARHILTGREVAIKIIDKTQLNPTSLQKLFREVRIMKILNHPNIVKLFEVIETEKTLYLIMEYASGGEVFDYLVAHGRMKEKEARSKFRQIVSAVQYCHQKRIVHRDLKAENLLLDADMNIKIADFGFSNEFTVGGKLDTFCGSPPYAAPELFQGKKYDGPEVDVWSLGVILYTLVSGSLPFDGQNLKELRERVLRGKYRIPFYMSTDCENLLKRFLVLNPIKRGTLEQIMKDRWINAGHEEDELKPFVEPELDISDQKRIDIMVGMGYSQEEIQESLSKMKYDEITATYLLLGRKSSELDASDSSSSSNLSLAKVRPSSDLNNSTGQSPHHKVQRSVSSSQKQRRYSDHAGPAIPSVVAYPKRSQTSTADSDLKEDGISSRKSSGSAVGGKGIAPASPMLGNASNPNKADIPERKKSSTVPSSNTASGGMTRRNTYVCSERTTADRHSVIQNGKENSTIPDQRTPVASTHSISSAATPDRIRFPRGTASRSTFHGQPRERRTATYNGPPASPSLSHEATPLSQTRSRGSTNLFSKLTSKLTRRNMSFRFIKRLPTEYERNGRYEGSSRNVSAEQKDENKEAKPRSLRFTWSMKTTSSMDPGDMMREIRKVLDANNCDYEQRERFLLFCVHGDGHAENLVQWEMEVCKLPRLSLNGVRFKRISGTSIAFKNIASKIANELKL
# Chain of RAF proto-oncogene serine/threonine-protein kinase (Homo sapiens), P04049 [Y340D,Y341D] (P04049 whole entry Y340D/Y341D): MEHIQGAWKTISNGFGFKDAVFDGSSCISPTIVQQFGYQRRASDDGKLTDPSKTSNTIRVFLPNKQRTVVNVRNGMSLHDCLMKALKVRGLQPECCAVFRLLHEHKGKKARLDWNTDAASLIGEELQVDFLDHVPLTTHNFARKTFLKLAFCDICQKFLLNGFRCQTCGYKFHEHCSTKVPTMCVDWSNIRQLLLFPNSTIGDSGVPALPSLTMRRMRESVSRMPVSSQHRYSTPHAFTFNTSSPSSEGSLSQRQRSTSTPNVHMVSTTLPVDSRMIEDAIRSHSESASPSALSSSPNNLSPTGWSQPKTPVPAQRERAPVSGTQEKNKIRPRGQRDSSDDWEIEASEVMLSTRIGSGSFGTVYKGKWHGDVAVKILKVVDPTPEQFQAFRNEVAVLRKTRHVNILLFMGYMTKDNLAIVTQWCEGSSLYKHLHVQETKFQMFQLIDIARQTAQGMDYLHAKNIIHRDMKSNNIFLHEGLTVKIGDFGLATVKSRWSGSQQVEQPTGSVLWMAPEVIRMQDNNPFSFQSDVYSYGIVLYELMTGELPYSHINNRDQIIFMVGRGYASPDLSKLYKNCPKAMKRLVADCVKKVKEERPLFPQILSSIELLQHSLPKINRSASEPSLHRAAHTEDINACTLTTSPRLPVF
# Chain of Serine/threonine-protein kinase WNK1 (Homo sapiens) (Q9H4A3 whole entry, looked up): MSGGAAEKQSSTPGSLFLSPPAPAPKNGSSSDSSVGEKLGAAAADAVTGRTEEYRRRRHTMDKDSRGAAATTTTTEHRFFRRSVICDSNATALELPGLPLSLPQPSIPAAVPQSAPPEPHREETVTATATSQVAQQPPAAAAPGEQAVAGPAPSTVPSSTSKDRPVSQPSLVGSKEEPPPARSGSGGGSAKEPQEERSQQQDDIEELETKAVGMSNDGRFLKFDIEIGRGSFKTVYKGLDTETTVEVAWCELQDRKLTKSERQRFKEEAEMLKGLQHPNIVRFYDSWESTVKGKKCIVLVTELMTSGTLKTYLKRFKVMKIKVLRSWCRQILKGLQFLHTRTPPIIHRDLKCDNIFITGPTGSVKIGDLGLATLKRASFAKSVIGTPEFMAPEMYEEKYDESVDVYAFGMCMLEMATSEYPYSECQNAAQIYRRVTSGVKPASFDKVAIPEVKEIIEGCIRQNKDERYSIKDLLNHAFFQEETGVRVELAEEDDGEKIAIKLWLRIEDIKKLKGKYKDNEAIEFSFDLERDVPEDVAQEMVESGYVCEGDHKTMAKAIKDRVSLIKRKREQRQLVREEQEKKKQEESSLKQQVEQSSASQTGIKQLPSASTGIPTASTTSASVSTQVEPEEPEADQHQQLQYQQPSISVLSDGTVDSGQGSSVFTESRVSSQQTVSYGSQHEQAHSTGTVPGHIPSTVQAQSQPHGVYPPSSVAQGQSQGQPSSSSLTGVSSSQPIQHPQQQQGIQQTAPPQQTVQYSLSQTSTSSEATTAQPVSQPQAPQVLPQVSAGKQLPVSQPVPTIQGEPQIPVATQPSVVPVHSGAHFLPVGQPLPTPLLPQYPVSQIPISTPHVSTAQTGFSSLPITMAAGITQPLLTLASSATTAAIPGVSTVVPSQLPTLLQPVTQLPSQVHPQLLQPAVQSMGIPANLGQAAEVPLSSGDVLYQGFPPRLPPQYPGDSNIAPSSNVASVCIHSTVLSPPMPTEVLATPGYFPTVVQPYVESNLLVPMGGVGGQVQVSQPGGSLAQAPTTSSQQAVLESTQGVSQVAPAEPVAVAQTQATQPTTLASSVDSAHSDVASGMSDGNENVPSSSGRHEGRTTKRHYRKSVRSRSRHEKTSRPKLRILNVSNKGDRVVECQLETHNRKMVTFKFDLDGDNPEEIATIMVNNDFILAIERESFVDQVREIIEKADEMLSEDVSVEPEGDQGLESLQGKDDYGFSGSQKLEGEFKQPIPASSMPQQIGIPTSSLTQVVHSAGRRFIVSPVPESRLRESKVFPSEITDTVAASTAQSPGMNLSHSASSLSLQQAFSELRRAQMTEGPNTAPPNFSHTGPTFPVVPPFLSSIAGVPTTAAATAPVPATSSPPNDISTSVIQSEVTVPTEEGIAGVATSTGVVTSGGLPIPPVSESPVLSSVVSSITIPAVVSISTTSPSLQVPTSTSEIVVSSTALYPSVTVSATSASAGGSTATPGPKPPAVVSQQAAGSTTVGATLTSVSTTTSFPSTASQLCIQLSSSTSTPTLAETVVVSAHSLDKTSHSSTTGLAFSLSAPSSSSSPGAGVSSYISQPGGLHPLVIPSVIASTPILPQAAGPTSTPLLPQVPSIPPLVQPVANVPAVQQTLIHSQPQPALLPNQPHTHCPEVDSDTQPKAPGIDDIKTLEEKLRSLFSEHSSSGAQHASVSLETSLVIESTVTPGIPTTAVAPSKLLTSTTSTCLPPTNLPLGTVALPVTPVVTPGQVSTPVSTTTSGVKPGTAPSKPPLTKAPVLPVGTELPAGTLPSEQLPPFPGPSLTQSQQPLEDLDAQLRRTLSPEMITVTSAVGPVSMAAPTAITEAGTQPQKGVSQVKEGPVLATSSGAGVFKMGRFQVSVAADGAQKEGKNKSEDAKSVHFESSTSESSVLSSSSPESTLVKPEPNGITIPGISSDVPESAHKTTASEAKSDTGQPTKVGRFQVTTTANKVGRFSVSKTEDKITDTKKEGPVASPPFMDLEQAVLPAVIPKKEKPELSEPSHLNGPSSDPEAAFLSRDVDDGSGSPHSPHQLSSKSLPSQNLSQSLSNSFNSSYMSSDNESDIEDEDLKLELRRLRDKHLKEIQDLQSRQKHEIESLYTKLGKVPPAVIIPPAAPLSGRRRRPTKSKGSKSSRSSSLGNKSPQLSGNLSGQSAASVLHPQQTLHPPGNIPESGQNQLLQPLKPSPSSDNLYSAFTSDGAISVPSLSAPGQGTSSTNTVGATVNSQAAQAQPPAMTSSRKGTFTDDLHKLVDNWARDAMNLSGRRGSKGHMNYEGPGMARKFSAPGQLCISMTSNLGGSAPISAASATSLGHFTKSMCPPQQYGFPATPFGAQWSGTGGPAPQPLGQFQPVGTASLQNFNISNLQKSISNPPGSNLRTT
compound,measurement,setting,value
CN(C(=O)c1cnn2cccnc12)c1cc2c(cc1N1CCOCC1)C(=O)N(C[C@@H](F)C(C)(C)O)C2,dTM,[1],0.2 K
CNC(=O)Nc1ccc(-c2nc(N3CC4CCC(C3)O4)c3cnn(C4CCC5(CC4)OCCO5)c3n2)cc1,% of control,[2],95%
same,% of inhibition,[3],12%
C=CC(=O)Nc1cc(-n2c(=O)ccc3cnc4ccc(-c5ccc(NS(C)(=O)=O)cc5)cc4c32)ccc1C,% of control,[4]; at 1 µM,92%
same,% of control,[4]; at 10 µM,92%
same,% of control,[5]; at 1 µM,100%
same,% of control,[5]; at 10 µM,79%
COCC(=O)NC/C=C/c1ccc2ncnc(Nc3ccc(Oc4ccc(C)nc4)c(C)c3)c2c1 [CP-724714],% of control,[6],100%
COc1cc(N(C)c2ccnc3ccc(C(F)(F)F)cc23)cc(OC)c1OC,% binding,[7],90%
COc1cc(Nc2nc(C)cc(-c3cnn4nc(OC)ccc34)n2)cc(C(F)(F)F)c1,% of control,[8],77%
same,% of control,[9],65%
